According to PubChem BioAssay (NCI):
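Briefly, cells in 96-well plates were exposed to five compound concentrations for 48 h, and endpoints were estimated by linear interpolation. GI50 is the concentration that inhibits growth by half. TGI is the concentration that stops growth completely.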

Experiments:
Experiment in all cases: NCI tumour cell line growth inhibition, 48 h
DU-145 prostate = tested on: DU-145 prostate
OVCAR-5 ovarian = tested on: OVCAR-5 ovarian
CCRF-CEM leukemia = tested on: CCRF-CEM leukemia
SW-620 colon = tested on: SW-620 colon
NCI-H522 lung = tested on: NCI-H522 lung
SNB-19 CNS = tested on: SNB-19 CNS
SR leukemia = tested on: SR leukemia
UACC-257 melanoma = tested on: UACC-257 melanoma
HL-60(TB) leukemia = tested on: HL-60(TB) leukemia
UACC-62 melanoma = tested on: UACC-62 melanoma
SN12C renal = tested on: SN12C renal
RXF 393 renal = tested on: RXF 393 renal
A549 NSCLC = tested on: A549 NSCLC
NCI-H460 lung = tested on: NCI-H460 lung
BT-549 breast = tested on: BT-549 breast
CAKI-1 renal = tested on: CAKI-1 renal
HCT-116 colon = tested on: HCT-116 colon
OVCAR-3 ovarian = tested on: OVCAR-3 ovarian
EKVX NSCLC = tested on: EKVX NSCLC
T-47D breast = tested on: T-47D breast
SF-268 CNS = tested on: SF-268 CNS
K-562 leukemia = tested on: K-562 leukemia
TK-10 renal = tested on: TK-10 renal
ACHN renal = tested on: ACHN renal
MDA-MB-435 = tested on: MDA-MB-435
SK-MEL-5 melanoma = tested on: SK-MEL-5 melanoma
NCI-H226 lung = tested on: NCI-H226 lung
MALME-3M melanoma = tested on: MALME-3M melanoma
MCF7 breast = tested on: MCF7 breast
SK-MEL-28 melanoma = tested on: SK-MEL-28 melanoma
LOX IMVI melanoma = tested on: LOX IMVI melanoma
OVCAR-4 ovarian = tested on: OVCAR-4 ovarian
PC-3 prostate = tested on: PC-3 prostate
SK-MEL-2 melanoma = tested on: SK-MEL-2 melanoma
MOLT-4 leukemia = tested on: MOLT-4 leukemia
U251 CNS = tested on: U251 CNS
COLO 205 colon = tested on: COLO 205 colon
HOP-62 NSCLC = tested on: HOP-62 NSCLC
IGROV1 ovarian = tested on: IGROV1 ovarian
NCI-H23 lung = tested on: NCI-H23 lung
SF-539 CNS = tested on: SF-539 CNS
A498 renal = tested on: A498 renal
MDA-MB-231 breast = tested on: MDA-MB-231 breast
786-0 renal = tested on: 786-0 renal
KM12 colon = tested on: KM12 colon
HCC-2998 colon = tested on: HCC-2998 colon
HT29 colon = tested on: HT29 colon
HCT-15 colon = tested on: HCT-15 colon
SK-OV-3 ovarian = tested on: SK-OV-3 ovarian
M14 melanoma = tested on: M14 melanoma
OVCAR-8 ovarian = tested on: OVCAR-8 ovarian
NCI/ADR-RES ovarian = tested on: NCI/ADR-RES ovarian
UO-31 renal = tested on: UO-31 renal
HS 578T breast = tested on: HS 578T breast
SNB-75 CNS = tested on: SNB-75 CNS
SF-295 CNS = tested on: SF-295 CNS
HOP-92 NSCLC = tested on: HOP-92 NSCLC
RPMI-8226 leukemia = tested on: RPMI-8226 leukemia

For `NS(=O)(=O)c1cccc(-c2cc3ccncc3cc2OCc2ccccc2)c1`, the GI50 (DU-145 prostate) was 17.1 µM, the TGI (DU-145 prostate) was > 25 µM and the GI50 (OVCAR-5 ovarian) was 14.8 µM. For the same compound, the TGI (OVCAR-5 ovarian) was > 25 µM, the GI50 (CCRF-CEM leukemia) was 8.43 µM and the TGI (CCRF-CEM leukemia) was > 25 µM. For the same compound, the GI50 (SW-620 colon) was 9.92 µM, the TGI (SW-620 colon) was > 25 µM and the GI50 (NCI-H522 lung) was 13.5 µM. The TGI (NCI-H522 lung) was > 25 µM, the GI50 (SNB-19 CNS) was 19.1 µM and the TGI (SNB-19 CNS) was > 25 µM. The GI50 (SR leukemia) was 11.6 µM, the TGI (SR leukemia) was > 25 µM and the GI50 (UACC-257 melanoma) was 7.76 µM. For the same compound, the TGI (UACC-257 melanoma) was > 25 µM, the GI50 (HL-60(TB) leukemia) was 4.64 µM and the TGI (HL-60(TB) leukemia) was 13.5 µM. For the same compound, the GI50 (UACC-62 melanoma) was 9.76 µM, the TGI (UACC-62 melanoma) was > 25 µM and the GI50 (SN12C renal) was 14.5 µM. For the same compound, the TGI (SN12C renal) was > 25 µM, the GI50 (RXF 393 renal) was 4.96 µM and the TGI (RXF 393 renal) was > 21.8 µM. The GI50 (A549 NSCLC) was 10.3 µM, the TGI (A549 NSCLC) was > 25 µM and the GI50 (NCI-H460 lung) was 11.7 µM. The TGI (NCI-H460 lung) was > 25 µM, the GI50 (BT-549 breast) was 7.65 µM and the TGI (BT-549 breast) was > 25 µM. The GI50 (CAKI-1 renal) was 10.6 µM, the TGI (CAKI-1 renal) was > 25 µM and the GI50 (HCT-116 colon) was 10.1 µM. For the same compound, the TGI (HCT-116 colon) was > 25 µM, the GI50 (OVCAR-3 ovarian) was 10.9 µM and the TGI (OVCAR-3 ovarian) was > 25 µM. The GI50 (EKVX NSCLC) was 9.67 µM, the TGI (EKVX NSCLC) was > 25 µM and the GI50 (T-47D breast) was 12.7 µM. For the same compound, the TGI (T-47D breast) was > 25 µM, the GI50 (SF-268 CNS) was 14.5 µM and the TGI (SF-268 CNS) was > 25 µM. For the same compound, the GI50 (K-562 leukemia) was 6.61 µM, the TGI (K-562 leukemia) was > 25 µM and the GI50 (TK-10 renal) was 9.77 µM. The TGI (TK-10 renal) was > 25 µM, the GI50 (ACHN renal) was 8.14 µM and the TGI (ACHN renal) was > 25 µM. For the same compound, the GI50 (MDA-MB-435) was 12.7 µM, the TGI (MDA-MB-435) was > 25 µM and the GI50 (SK-MEL-5 melanoma) was 4.83 µM. The TGI (SK-MEL-5 melanoma) was > 15.8 µM, the GI50 (NCI-H226 lung) was 9.03 µM and the TGI (NCI-H226 lung) was > 25 µM. The GI50 (MALME-3M melanoma) was 14.7 µM, the TGI (MALME-3M melanoma) was > 25 µM and the GI50 (MCF7 breast) was 10.5 µM. The TGI (MCF7 breast) was > 25 µM, the GI50 (SK-MEL-28 melanoma) was 5.85 µM and the TGI (SK-MEL-28 melanoma) was > 25 µM. The GI50 (LOX IMVI melanoma) was 12.4 µM, the TGI (LOX IMVI melanoma) was > 25 µM and the GI50 (OVCAR-4 ovarian) was 11.5 µM. For the same compound, the TGI (OVCAR-4 ovarian) was > 25 µM, the GI50 (PC-3 prostate) was 10.8 µM and the TGI (PC-3 prostate) was > 25 µM. For the same compound, the GI50 (SK-MEL-2 melanoma) was 7.43 µM, the TGI (SK-MEL-2 melanoma) was > 19.6 µM and the GI50 (MOLT-4 leukemia) was 8.44 µM. For the same compound, the TGI (MOLT-4 leukemia) was > 25 µM, the GI50 (U251 CNS) was 13 µM and the TGI (U251 CNS) was > 25 µM. For the same compound, the GI50 (COLO 205 colon) was 10.7 µM, the TGI (COLO 205 colon) was > 25 µM and the GI50 (HOP-62 NSCLC) was 11.6 µM. The TGI (HOP-62 NSCLC) was > 25 µM, the GI50 (IGROV1 ovarian) was > 20.7 µM and the TGI (IGROV1 ovarian) was > 25 µM. The GI50 (NCI-H23 lung) was > 18.4 µM, the TGI (NCI-H23 lung) was > 25 µM and the GI50 (SF-539 CNS) was 8.62 µM. The TGI (SF-539 CNS) was > 25 µM, the GI50 (A498 renal) was 2.17 µM and the TGI (A498 renal) was 13 µM. For the same compound, the GI50 (MDA-MB-231 breast) was 7.37 µM, the TGI (MDA-MB-231 breast) was > 23.9 µM and the GI50 (786-0 renal) was 7.37 µM. For the same compound, the TGI (786-0 renal) was > 20.7 µM, the GI50 (KM12 colon) was 10.7 µM and the TGI (KM12 colon) was > 25 µM. The GI50 (HCC-2998 colon) was 15.2 µM, the TGI (HCC-2998 colon) was > 25 µM and the GI50 (HT29 colon) was 6.05 µM. The TGI (HT29 colon) was 16.8 µM, the GI50 (HCT-15 colon) was 7.67 µM and the TGI (HCT-15 colon) was > 25 µM. The GI50 (SK-OV-3 ovarian) was > 18.5 µM, the TGI (SK-OV-3 ovarian) was > 25 µM and the GI50 (M14 melanoma) was 14.5 µM. For the same compound, the TGI (M14 melanoma) was > 25 µM, the GI50 (OVCAR-8 ovarian) was 10.1 µM and the TGI (OVCAR-8 ovarian) was > 25 µM. For the same compound, the GI50 (NCI/ADR-RES ovarian) was 11.2 µM, the TGI (NCI/ADR-RES ovarian) was > 25 µM and the GI50 (UO-31 renal) was 5.76 µM. For the same compound, the TGI (UO-31 renal) was > 21.4 µM, the GI50 (HS 578T breast) was 4.2 µM and the TGI (HS 578T breast) was > 18.4 µM. For the same compound, the GI50 (SNB-75 CNS) was 3.23 µM, the TGI (SNB-75 CNS) was > 25 µM and the GI50 (SF-295 CNS) was 6.55 µM. The TGI (SF-295 CNS) was > 17.7 µM, the GI50 (HOP-92 NSCLC) was 4.39 µM and the TGI (HOP-92 NSCLC) was > 25 µM. The GI50 (RPMI-8226 leukemia) was 6.66 µM and the TGI (RPMI-8226 leukemia) was > 25 µM.
